Measured values taken from the supplement of paper PMC11451515.

System: NOMO1
Assay: cell viability relative to DMSO control; higher = less cytotoxic
Details: 48 h
Summary of the method: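 Viability values are per-plate percentages of DMSO wells, with background from cell-free wells. Library compounds in DMSO were pin-dosed, in an 11-point threefold series from 47 μM to 0.79 nM, onto NOMO1 or SEM (500 cells/well) or P12-Ichikawa (1000 cells/well) leukemia cells in 1536-well plates (5 μl). Those cells had been adapted for at least four passages in each medium, and CellTiter-Glo One luminescence was read after 48 h at 37°C.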

[1] = HPLM + 10% dialyzed FBS, 0.000781 µM
[2] = HPLM + 10% dialyzed FBS, 0.00234 µM
[3] = HPLM + 10% dialyzed FBS, 0.00702 µM
[4] = HPLM + 10% dialyzed FBS, 0.0211 µM
[5] = HPLM + 10% dialyzed FBS, 0.0632 µM
[6] = HPLM + 10% dialyzed FBS, 0.19 µM
[7] = HPLM + 10% dialyzed FBS, 0.569 µM
[8] = HPLM + 10% dialyzed FBS, 1.71 µM
[9] = HPLM + 10% dialyzed FBS, 5.12 µM
[10] = HPLM + 10% dialyzed FBS, 15.4 µM
[11] = HPLM + 10% dialyzed FBS, 46.1 µM
[12] = RPMI 5 mM glucose + 10% FBS, 0.000781 µM
[13] = RPMI 5 mM glucose + 10% FBS, 0.00234 µM
[14] = RPMI 5 mM glucose + 10% FBS, 0.00702 µM
[15] = RPMI 5 mM glucose + 10% FBS, 0.0211 µM
[16] = RPMI 5 mM glucose + 10% FBS, 0.0632 µM
[17] = RPMI 5 mM glucose + 10% FBS, 0.19 µM
[18] = RPMI 5 mM glucose + 10% FBS, 0.569 µM
[19] = RPMI 5 mM glucose + 10% FBS, 1.71 µM
[20] = RPMI 5 mM glucose + 10% FBS, 5.12 µM
[21] = RPMI 5 mM glucose + 10% FBS, 15.4 µM
[22] = RPMI 5 mM glucose + 10% FBS, 46.1 µM
[23] = RPMI 5 mM glucose + 10% dialyzed FBS, 0.000781 µM
[24] = RPMI 5 mM glucose + 10% dialyzed FBS, 0.00234 µM
[25] = RPMI 5 mM glucose + 10% dialyzed FBS, 0.00702 µM
[26] = RPMI 5 mM glucose + 10% dialyzed FBS, 0.0211 µM
[27] = RPMI 5 mM glucose + 10% dialyzed FBS, 0.0632 µM
[28] = RPMI 5 mM glucose + 10% dialyzed FBS, 0.19 µM
[29] = RPMI 5 mM glucose + 10% dialyzed FBS, 0.569 µM
[30] = RPMI 5 mM glucose + 10% dialyzed FBS, 1.71 µM
[31] = RPMI 5 mM glucose + 10% dialyzed FBS, 5.12 µM
[32] = RPMI 5 mM glucose + 10% dialyzed FBS, 15.4 µM
[33] = RPMI 5 mM glucose + 10% dialyzed FBS, 46.1 µM

Structure (SMILES) | cell viability [1] | cell viability [2] | cell viability [3] | cell viability [4] | cell viability [5] | cell viability [6] | cell viability [7] | cell viability [8] | cell viability [9] | cell viability [10] | cell viability [11] | cell viability [12] | cell viability [13] | cell viability [14] | cell viability [15] | cell viability [16] | cell viability [17] | cell viability [18] | cell viability [19] | cell viability [20] | cell viability [21] | cell viability [22] | cell viability [23] | cell viability [24] | cell viability [25] | cell viability [26] | cell viability [27] | cell viability [28] | cell viability [29] | cell viability [30] | cell viability [31] | cell viability [32] | cell viability [33]
COc1cc[nH]c2ncc(C(=O)C(=O)N3CCN(C(=O)c4ccccc4)C[C@H]3C)c1-2 | 137% | 121% | 111% | 105% | 121% | 108% | 106% | 108% | 120% | 100% | 99.1% | 99.9% | 101% | 101% | 101% | 99% | 99.2% | 100% | 99.1% | 107% | 105% | 102% | 109% | 117% | 114% | 115% | 119% | 108% | 108% | 105% | 99.2% | 103% | 91.9%
Cc1cccc(Nc2ccncc2[S+](=O)([O-])NC(=O)NC(C)C)c1 | 105% | 103% | 100% | 85.6% | 112% | 105% | 103% | 87.3% | 80.9% | 89.3% | 56% | 95.6% | 89.6% | 96.4% | 88.9% | 83% | 84.8% | 89.4% | 89.1% | 79.2% | 82.3% | 72.4% | 89.1% | 91.4% | 81.1% | 94.1% | 93.6% | 92.6% | 85.5% | 89.3% | 83.5% | 81% | 65.8%
CC#CCn1c(N2CCC[C@@H](N)C2)nc2c1c(=O)n(Cc1nc(C)c3ccccc3n1)c(=O)n2C | 97.8% | 97.2% | 100% | 88.2% | 108% | 110% | 104% | 87.8% | 98.3% | 114% | 75.1% | 97.6% | 93.7% | 101% | 90.3% | 89% | 96.3% | 102% | 89% | 88.1% | 91.1% | 82% | 104% | 96.6% | 112% | 87.7% | 101% | 105% | 100% | 96.3% | 93.8% | 97.7% | 91.7%
CC(C)OC(=O)[C@H](C)N[P@](=O)(OC[C@H]1O[C@@H](N2\C=C/C(=O)NC2=O)[C@](C)(F)[C@@H]1O)OC3=CC=CC=C3 | 115% | 125% | 119% | 122% | 127% | 131% | 87.5% | 91% | 40.5% | 34.3% | 40.8% | 101% | 99.8% | 116% | 98.4% | 107% | 99.9% | 95.7% | 98% | 87.3% | 17.5% | 19% | 101% | 110% | 115% | 130% | 114% | 100% | 99.8% | 101% | 81.3% | 23.7% | 24.1%
